Consider 16 molecules from patent publication EP2270002A1 (Vereniging voor Christelijk Hoger Onderwijs, …, priority 2009, dated 2011).

This test has as its target histamine H4 receptor (Homo sapiens, UniProt Q9H3N8). Nature of the test: histamine H4 receptor Ki (Table 1; no method described). Format: binding.

The structures appear in SMILES notation.

Sequence of histamine H4 receptor (Q9H3N8 whole entry, species assumed): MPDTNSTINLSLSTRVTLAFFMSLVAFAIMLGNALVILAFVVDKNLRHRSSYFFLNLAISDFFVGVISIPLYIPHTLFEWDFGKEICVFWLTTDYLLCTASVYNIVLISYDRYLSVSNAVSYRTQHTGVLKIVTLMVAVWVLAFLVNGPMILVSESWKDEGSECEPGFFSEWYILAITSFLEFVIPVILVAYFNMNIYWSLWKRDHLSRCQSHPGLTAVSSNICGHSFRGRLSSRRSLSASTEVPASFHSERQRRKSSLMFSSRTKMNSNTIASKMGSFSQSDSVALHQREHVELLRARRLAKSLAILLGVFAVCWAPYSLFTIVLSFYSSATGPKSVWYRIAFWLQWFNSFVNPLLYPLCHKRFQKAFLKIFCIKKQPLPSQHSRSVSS

With `Cc1ccc2c(N3CCN(C)CC3)nc(N)nc2c1` [Compound 1], the affinity corresponds to a Ki of 24 nM.
`CN1CCN(c2nc(N)nc3cc(Br)ccc23)CC1` [Compound 2, 7-bromo-4-(4-methylpiperazin-1-yl)quinazolin-2-amine]: the Ki (as a rule, a dissociation constant, usually derived from enzyme kinetics or from competition with a known ligand) came out at 17 nM.
Next, `CN1CCN(c2nc(N)nc3cc(-c4ccccc4)ccc23)CC1` [Compound 3, 4-(4-methylpiperazin-1-yl)-7-phenylquinazolin-2-amine]: 19 nM; `Cc1cccc(C)c1-c1ccc2c(N3CCN(C)CC3)nc(N)nc2c1` [Compound 4, 7-(2,6-dimethylphenyl)-4-(4-methylpiperazin-1-yl)quinazolin-2-amine]: 90 nM; `CN1CCN(c2nc(N)nc3cc(-c4ccc(C#N)cc4)ccc23)CC1` [Compound 5, 4-(2-amino-4-(4-methylpiperazin-1-yl)quinazolin-7-yl)benzonitrile]: 29 nM.
Next, `COc1ccc(-c2ccc3c(N4CCN(C)CC4)nc(N)nc3c2)cc1` [Compound 6, 7-(4-methoxyphenyl)-4-(4-methylpiperazin-1-yl)quinazolin-2-amine]: 55 nM; `CN1CCN(c2nc(N)nc3cc(-c4ccoc4)ccc23)CC1` [Compound 7, 7-(furan-3-yl)-4-(4-methylpiperazin-1-yl)quinazolin-2-amine]: 6 nM.
Next, `CN1CCN(c2nc(N)nc3cc(-c4ccco4)ccc23)CC1` [Compound 8, 7-(furan-2-yl)-4-(4-methylpiperazin-1-yl)quinazolin-2-amine]: 4 nM; `CN1CCN(c2nc(N)nc3cc(-c4ccsc4)ccc23)CC1` [Compound 9, 4-(4-methylpiperazin-1-yl)-7-(thiophen-3-yl)quinazolin-2-amine]: 5 nM; `Cc1cccc2c(N3CCN(C)CC3)nc(N)nc12` [Compound 10]: 91 nM.
With `CN1CCN(c2nc(N)nc3c(Br)cccc23)CC1` [Compound 11, 8-bromo-4-(4-methylpiperazin-1-yl)quinazolin-2-amine], the Ki was 111 nM.
For `CN1CCN(c2nc(N)nc3c(-c4ccccc4)cccc23)CC1` [Compound 12, 4-(4-methylpiperazin-1-yl)-8-phenylquinazolin-2-amine] the value was 32 nM; for `Cc1cccc(C)c1-c1cccc2c(N3CCN(C)CC3)nc(N)nc12` [Compound 13, 8-(2,6-dimethylphenyl)-4-(4-methylpiperazin-1-yl)quinazolin-2-amine], 221 nM; for `CN1CCN(c2nc(N)nc3c(-c4ccc(C#N)cc4)cccc23)CC1` [Compound 14, 4-(2-amino-4-(4-methylpiperazin-1-yl)quinazolin-8-yl)benzonitrile], 2330 nM.
`COc1ccc(-c2cccc3c(N4CCN(C)CC4)nc(N)nc23)cc1` [Compound 15, 8-(4-methoxyphenyl)-4-(4-methylpiperazin-1-yl)quinazolin-2-amine] displayed a Ki of 945 nM.
For `CN1CCN(c2nc(N)nc3c(-c4ccoc4)cccc23)CC1` [Compound 16, 8-(furan-3-yl)-4-(4-methylpiperazin-1-yl)quinazolin-2-amine] the value was 109 nM.
